This is an account of results in publication PMC7520498, “Chemical Constituents from the Whole Plant of Cuscuta reflexa” (Natural Products and Bioprospecting, 2020).

≈ marks a conversion by molar mass, not a printed value.

Assay [1] addresses T1, porcine pancreatic lipase (PPL) (Sus scrofa, UniProt P00591).
T1 sequence (P00591 1-450): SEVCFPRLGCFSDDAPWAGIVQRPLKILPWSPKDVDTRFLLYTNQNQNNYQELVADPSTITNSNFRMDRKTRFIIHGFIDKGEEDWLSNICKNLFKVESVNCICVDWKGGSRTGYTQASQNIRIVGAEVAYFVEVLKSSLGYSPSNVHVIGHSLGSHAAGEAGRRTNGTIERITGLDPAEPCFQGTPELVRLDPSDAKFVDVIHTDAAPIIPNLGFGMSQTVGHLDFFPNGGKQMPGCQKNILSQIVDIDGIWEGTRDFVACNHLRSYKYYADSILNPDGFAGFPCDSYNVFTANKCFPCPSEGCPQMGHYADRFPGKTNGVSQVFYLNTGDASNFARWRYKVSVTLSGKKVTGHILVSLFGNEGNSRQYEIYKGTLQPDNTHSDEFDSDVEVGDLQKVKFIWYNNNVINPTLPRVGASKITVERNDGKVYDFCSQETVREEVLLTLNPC
Briefly: In vitro porcine pancreatic lipase inhibition assay (p-NPB substrate). The assay is classed as biochemical. The procedure:
For lipase inhibition tests of each compound, porcine pancreatic lipase was used. p-Nitrophenyl butyrate (p-NPB) was used as the substrate. First, 5 μL of the lipase solution (40 U/mL) in Tris–HCl buffer (100 mM Tris–HCl, 5 mM CaCl2; pH 7.0) was added to a 96-well microtiter plate. Each compound in 1 μL of DMSO and 184 μL of Tris–HCl buffer were added and mixed with the enzyme buffer to start the reaction. After incubation at 37 °C for 15 min, 10 μL of the substrate solution (10 mM p-NPB in dimethyl formamide) was added. The enzymatic reaction was carried out for 15 min at 37 °C. The hydrolysis of p-NPB to p-nitrophenol was monitored at 400 nm using a spectrophotometer.

Assay [2] deals with rabbit platelet aggregation induced by collagen. Description: Rabbit platelet aggregation induced by collagen. Conditions: collagen 4 μg/mL; for IC50: Oryctolagus cuniculus, Platelet, read-out: IC50 against rabbit platelet aggregation induced by collagen. The assay is classed as cell-based. The procedure:
(§1) Compounds 1–15 and 1a were also evaluated for their inhibitory activity against rabbit platelet aggregation induced by thrombin (1 U/mL), platelet-activating factor (PAF, 0.4 μg/mL), arachidonate (AA, 0.5 mM), or collagen (4 μg/mL).
(§2) The inhibitory effects of the compounds against rabbit platelet aggregation induced by thrombin (1 U/mL), PAF (0.4 μg/mL), AA (0.5 mM), or collagen (4 μg/mL) were evaluated according to published methods.

In assay [3] the test system is rabbit platelet aggregation induced by arachidonate (AA). Description: Rabbit platelet aggregation induced by arachidonate (AA). Format: cell-based. The following applies: Oryctolagus cuniculus, AA 0.5 mM. The procedure:
as §1, §2

“7-oxo-β-sitosterol 3-O-β-D-glucopyranoside [Compound 4]”: in assay [1] (at a concentration of 100 μg/mL), the PPL inhibition turned out to be 12 ± 2%. Regarding `Cc1cc(OC2OC(COC(=O)C=Cc3ccc(O)cc3)C(O)C(O)C2O)cc(=O)o1` (centres unmarked) [Compound 1, cuscutaroside A], the IC50 in assay [2] was determined as 291 ± 47.9 µg/mL (≈ 671 µM).

As to `CC(=O)Oc1ccc(/C=C/C(=O)OC[C@H]2O[C@@H](Oc3cc(C)oc(=O)c3)[C@H](OC(C)=O)[C@@H](OC(C)=O)[C@@H]2OC(C)=O)cc1` [Compound 1a], the figures for the IC50 in assay [2] and in assay [3] (read-out: IC50 against rabbit platelet aggregation induced by AA) were 63.8 ± 4.4 µg/mL (≈ 106 µM) and 72.6 ± 10.5 µg/mL (≈ 120 µM), respectively. Take `CCC(CCC(C)C1CCC2C3C(OC)C=C4CC(OC5OC(CO)C(O)C(O)C5O)CCC4(C)C3CCC12C)C(C)C` (stereo not drawn) [Compound 3, 7β-methoxy-β-sitosterol 3-O-β-glucopyranoside]: the IC50 in assay [1] (porcine pancreatic lipase, p-NPB substrate, read-out: PPL inhibitory activity IC50 (converted)) was 111 µM. Turning to `CC(=O)Oc1ccccc1C(=O)O` [aspirin, reference compound], the half-maximal inhibitory concentration (IC50) in assay [2] was 33.3 ± 1.3 µg/mL (≈ 185 µM). Besides, the inhibition at 40 µg/mL in assay [3] (at 40 μg/mL) worked out at 88.1 ± 1.1%. For the molecule scrophenoside B [Compound 8], the “IC50 against rabbit platelet aggregation induced by collagen” value in assay [2] was 180.5 ± 6.7 µg/mL.
